Laboratory results taken from patent publication US20130288991A1, “BLOCK COPOLYMERS FOR STABLE MICELLES” (Intezyne Technologies, Inc., priority 2012, published 2013).
pIC50: −log10 of the molar value.

Legend:
[1] = system: PANC-1 pancreatic (folate receptor +) cancer cells; test: In-vitro cytotoxicity of aminopterin formulations (cell titer-glo); assay type: cell-based; settings: read-out: IC50 (cell viability inhibited by 50%); PANC-1, 72 hours
Method: (§1) Cells originally purchased from ATCC (A549, Panc-1, OVCAR3, and BXPC-3) were seeded in 96 well tissue culture plates to be 50% confluent by 24 hours. Cells were incubated at 37° C. with 5.0% CO2. Cells were treated with escalading doses of free aminopterin, crosslinked aminopterin formulation, uncrosslinked aminopterin formulation, and non drug-loaded micelle formulations 24 hours after plate seeding. Free aminopterin was dissolved in DMSO and administered to cells with a total volume of DMSO equal to or less than 0.0025%. Micelle formulations were re-suspended in biology grade water. Dilutions were done in deep well plates with cell media and water or DMSO (for free aminopterin only) equalizing displaced volume. Incubation media was aspirated from the 96 well plates and 100 μl of each dilution was added to the wells in triplicate and incubated over 72 hours at 37° C. with 5.0% CO2. Crosslinked and uncrosslinked non drug-loaded micelle formulations were administered at the four highest doses and were calculated at comparative mg/ml concentrations to drug-loaded micelle concentrations of delivery vehicle. After 72-hour incubation, plates were allowed to cool to room temperature and 25 μl of cell titer-glo was added to each well. Plates were briefly shaken to mix and luminescence readings were read on a plate reader. Luminescence reading for triplicate doses are averaged and divided by average luminescence readings from untreated cells on the same plate to calculate the % of viable cells per dose.
(§2) The aminopterin loaded micelles from Example 119 and Example 121 were tested for cytotoxicity compared to free aminopterin and the crosslinked and uncrosslinked non drug-loaded micelle formulations (from polymer of Example 18) against A549 lung, OVCAR3 ovarian, PANC-1 (folate receptor +) pancreatic and BxPC3 (folate receptor −) pancreatic cancer cell lines. The cytotoxicity profiles for each treatment for each cell line in FIG. 14 (A549 Lung), FIG. 15 (OVCAR3 Ovarian), FIG. 16 (PANC-1 Pancreatic), and FIG. 17 (BxPC3 pancreatic). […] Treatment with both uncrosslinked and crosslinked non drug-loaded micelles was well tolerated, with greater than 80% viability for all cells tested.

[2] = system: BxPC3 pancreatic (folate receptor −) cancer cells; test: as above; assay type: cell-based; settings: BxPC3, 72 hours
Method: as §1, §2

[3] = system: OVCAR3 ovarian cancer cells; test: as above; assay type: cell-based; settings: OVCAR3, 72 hours
Method: as §1, §2

[4] = system: A549 lung cancer cells; test: as above; assay type: cell-based; settings: read-out: IC50 (cell viability inhibited by 50%); A549, 72 hours
Method: as §1, §2

[5] = in vivo; settings: Fisher, rat, iv, 5 mg/kg
[6] = Fisher, rat, in vivo, iv, 5 mg/kg
[7] = in vivo; set-up: species or system Fisher rats; settings: Fisher, rat, iv, 10 mg/kg
Method: The delivery vehicle for drug administration was isotonic saline. […] Samples were analyzed on a Waters Alliance 2695 equiped with a 2475 fluorescence detector (Ex=470 nm; Em=580). A 5 μL sample injection was made onto a Waters 4 μm Nova Pak C18 (3.9×150 mm) at 30° C. with a flow rate of 0.750 mL per minute of 10 mM phosphate buffer (pH=1.4), methanol and acetonitrile (gradient from 70/10/20 to 40/10/50 for buffer/methanol/acetonitrile was made over eight minutes). Analyte eluted at 5.9 minutes under these conditions, was normalized to the internal standard, and quantitated using a standard curve comprised of seven standards.

[8] = system: HCT-116 colon cancer cells; test: Anti-tumor efficacy of SN-38 micelles in HCT-116 xenograft model; assay type: in vivo, mice; settings: irinotecan at 50 mg/kg, IV 3×QW

In the case of `Nc1nc(N)c2nc(CNc3ccc(C(=O)N[C@@H](CCC(=O)O)C(=O)O)cc3)cnc2n1` [Aminopterin, aminopterin], the pIC50 [1] was 7.60 to 8.15, the “IC50 (cell viability inhibited by 50%)” value [2] was “no IC50 was obtained” and the “IC50 (cell viability inhibited by 50%)” value [3] was “no IC50 was obtained”. The pIC50 [4] was 7.60 to 8.15.
In the case of `CO[C@H]1C(=O)[C@]2(C)[C@@H](OC)C[C@H]3OC[C@@]3(OC(C)=O)[C@H]2[C@H](OC(=O)c2ccccc2)[C@]2(O)C[C@H](OC(=O)[C@H](O)[C@@H](NC(=O)OC(C)(C)C)c3ccccc3)C(C)=C1C2(C)C` [free cabizataxel, cabazitaxel], the Cmax [5] was 1200 ng/mL and the “Exposure of cabazitaxel to the plasma compartment over 15 minutes” value [6] was 200 ng·h/mL.
For `COc1cccc2c1C(=O)c1c(O)c3c(c(O)c1C2=O)C[C@@](O)(C(C)=O)C[C@@H]3O[C@H]1C[C@H](N)[C@H](O)[C@H](C)O1` [free daunorubicin, daunorubicin], the AUC [7] was 1300 ng·h/mL, the Cmax [7] was 3300 ng/mL and the “Half-life (terminal, elimination)” value [7] was 3.3 h. The half-life ([7]; Half-life (terminal, elimination)) was 3.4 h.
In the case of `CCc1c2c(nc3ccc(OC(=O)N4CCC(N5CCCCC5)CC4)cc13)-c1cc3c(c(=O)n1C2)COC(=O)[C@]3(O)CC` [irinotecan], the “Mean tumor growth rate” value [8] was 18.9 mm^3 per day.
